{"source": "patent US20070122830A1", "about": "“Prohibitin-directed diagnostics and therapeutics for cancer and chemotherapeutic drug resistance” (Aurelium BioPharma Inc., priority 2005, published 2007)", "key": {"prohibitin [1]": {"system": "prohibitin", "experiment": "Prohibitin silencing by siRNA in MCF-7 cells, anti-prohibitin immunoblot", "assay_type": "cell-based, human", "conditions": "MCF-7 cell line; FIG. 6", "excerpt": "(§1) To establish the importance of prohibitin to the expression of the drug-resistant phenotype in MDA cell lines, prohibitin expression was silenced using RNAi. Briefly, the following siRNA duplexes targeting the human prohibitin mRNA were designed and purchased either from Ambion (Austin, Tex.) or Invitrogen (Carlsbad, Calif.). The siRNA duplex sequences corresponding to nucleotides 425 through 443 (GenBank SEQ ID NUMBER: U49725.1) targeting the start of the prohibitin mRNA transcript were:\n(§2) For a typical siRNA transfection, 1 nmole of the annealed siRNA duplex was mixed with 1.4 ml of Opti-MEM reagent (Invitrogen). In another tube, […] of Oligofectamine reagent (Invitrogen, Carlsbad, Calif.) was mixed with […] of Opti-MEM. The two solutions were combined and mixed gently by inversion and incubated for 20 min. at RT. The resulting solution was added to the cultured cells drop by drop in a 10 cm dish (cells are approximately 40-50% confluent). The next day the transfected cells were trypsinized and seeded in 6 or 96-well plates and further incubated for the indicated amount of time (assay dependent) before further analysis.\n(§3) Targeted silencing of prohibitin was performed as described in Example 2 above."}, "prohibitin [2]": {"system": "prohibitin", "experiment": "Prohibitin silencing by siRNA in SKOV3 cells, anti-prohibitin immunoblot", "assay_type": "cell-based, human", "conditions": "for decrease in prohibitin: FIG. 7", "excerpt": "as §1, §2, §3"}, "[3]": {"system": "hematological tumor cells", "experiment": "Hematological tumor model in MHC-matched mice, prohibitin siRNA plus chemotherapy", "assay_type": "in vivo", "conditions": "Example 8", "protocol": "In order to determine whether targeting prohibitin is useful in treating a preexisting cancerous condition, MHC-matched mice, 5 to 7 weeks old, receive a subcutaneous (s.c.) injection of the cells 5×10^5 hematological tumor cells, and tumors are allowed to form. Tumor growth starting on the first day of treatment is measured by palpitation, and the volume of the xenograft is monitored every 4 days. Tumors are allowed to grow to a sufficient size (5.5 mm) for appropriate analysis of the effects of prohibitin treatment on tumor sensitivity to chemotherapeutic drugs. Mice are then treated with a prohibitin siRNA (3 μg daily for 16 days) designed to decrease the level of expression of prohibitin. […]\nThe animal's weight is measured every 4 days. Tumor growth starting on the first day of treatment is measured by palpitation and the volume of the xenograft is monitored every 4 days. […] Tumor tissue is excised from the mice and its weight is measured. […] Tumor cell count is determined by trypsinizing tumors in DMEM medium supplemented with 10% fetal bovine serum until cells are in free suspension. […]\nLiposome formulations are produced as described previously (Shi et al. (2000) Proc. Natl. Acad. Sci. USA. 97(13): 7567-7572). […] The mean vesicle diameters are determined by quasielastic light scattering using a Microtrac Ultrafine Particle Analyzer (Leeds-Northrup, St. Petersburg, Fla.). […]"}}, "data": [{"substance": "prohibitin siRNA: siRNA duplex to human prohibitin mRNA nt 425-443; sense 5′-GGAAGUGGUCUGUCUGUUAtt-3′, antisense 5′-UAACAGACAGACCACUUCCtt-3′ (sense GGAAGUGGUCUGUCUGUUATT; antisense UAACAGACAGACCACUUCCTT; chemistry not given here)", "values": [{"measurement": "decrease in prohibitin expression as compared to mock siRNA", "setting": "prohibitin [1]", "value": 37, "unit": "%"}, {"measurement": "repeat of prohibitin silencing", "setting": "prohibitin [2]; FIG. 8", "value": "confirmed, albeit with increased prohibitin expression"}, {"measurement": "decrease in prohibitin", "setting": "prohibitin [2]; six days after treatment", "value": 71, "unit": "%"}, {"measurement": "decrease in prohibitin", "setting": "prohibitin [2]; three days after treatment", "value": "~93", "unit": "%"}, {"measurement": "sensitivity of hematological tumors to chemotherapeutic drug treatment", "setting": "[3]; siRNA 3 μg daily for 16 days with taxol or doxorubicin", "value": "increases the sensitivity"}, {"measurement": "prognosis (tumor size, tumor cells) vs targeting agent only or drug only", "setting": "[3]; siRNA plus taxol or doxorubicin", "value": "better prognosis (i.e., smaller tumor or fewer tumor cells)"}]}]}
